Common to all, as to experiment: cell-based
Parameters in all cases: NanoBRET live-cell target engagement; % occupancy from displacement of tracer K10 on NanoLuc-kinase fusions, mean n=3
Common to all, as to conditions: HEK293, read-out: % inhibition

One experiment concerns the target WEE1 (Homo sapiens, UniProt P30291). A digest of the protocol: (§1)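 Live-cell NanoBRET target engagement: cells expressing kinase–NanoLuc fusion with tracer treated with compound 2 h at 37 °C, 5% CO2. BRET read from donor (450 nm) and acceptor (610/630 nm) emission with 20 μM extracellular NanoLuc inhibitor; % occupancy calculated relative to tracer+DMSO and zero-BRET controls.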

For the next experiment, the target named is SIK1 (Homo sapiens, UniProt P57059). The method in brief: as §1
Chain of SIK1 (P57059 whole entry): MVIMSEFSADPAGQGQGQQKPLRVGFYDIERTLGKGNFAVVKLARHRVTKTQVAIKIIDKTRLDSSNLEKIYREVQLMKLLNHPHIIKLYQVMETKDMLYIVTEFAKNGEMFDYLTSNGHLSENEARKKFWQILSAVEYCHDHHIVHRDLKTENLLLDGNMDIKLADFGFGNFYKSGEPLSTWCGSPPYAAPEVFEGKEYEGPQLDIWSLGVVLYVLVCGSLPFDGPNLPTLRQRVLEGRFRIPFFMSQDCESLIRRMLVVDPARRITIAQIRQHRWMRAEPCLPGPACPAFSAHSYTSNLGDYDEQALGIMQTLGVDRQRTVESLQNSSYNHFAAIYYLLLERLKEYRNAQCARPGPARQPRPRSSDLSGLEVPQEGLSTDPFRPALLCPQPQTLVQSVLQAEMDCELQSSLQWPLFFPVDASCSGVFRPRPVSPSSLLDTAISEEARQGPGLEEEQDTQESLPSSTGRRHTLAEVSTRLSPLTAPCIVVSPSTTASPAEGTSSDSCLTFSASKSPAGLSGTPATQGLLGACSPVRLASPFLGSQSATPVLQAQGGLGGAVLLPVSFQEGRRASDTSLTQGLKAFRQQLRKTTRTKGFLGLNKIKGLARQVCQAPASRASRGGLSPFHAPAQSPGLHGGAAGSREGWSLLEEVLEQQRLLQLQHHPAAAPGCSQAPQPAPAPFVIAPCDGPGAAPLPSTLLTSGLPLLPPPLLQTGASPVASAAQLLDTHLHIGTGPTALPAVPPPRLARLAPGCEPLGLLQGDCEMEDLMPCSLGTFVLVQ
For the next experiment, the target named is STK32B (Homo sapiens, UniProt Q9NY57). A digest of the protocol:
as §1

The next experiment has as its target SNRK (Homo sapiens, UniProt Q9NRH2). A digest of the protocol:
as §1

The next experiment addresses CLK4 (Homo sapiens, UniProt Q9HAZ1). The method in brief: as §1
Another experiment concerns the target STK3 (Homo sapiens, UniProt Q13188). A digest of the protocol:
as §1

The next experiment concerns the target LIMK1 (Homo sapiens, UniProt P53667). A digest of the protocol: as §1
The target in a further experiment is CSNK2A2 (Homo sapiens, UniProt P19784). The method in brief: as §1
A further experiment addresses PLK3 (Homo sapiens, UniProt Q9H4B4). The method in brief:
as §1

The target in a further experiment is CSNK1D (Homo sapiens, UniProt P48730). The method in brief: as §1
The next experiment concerns the target ITK (Homo sapiens, UniProt Q08881). The method in brief: as §1
The target in a further experiment is RIOK2 (Homo sapiens, UniProt Q9BVS4). The method in brief:
as §1

Another experiment deals with NUAK1 (Homo sapiens, UniProt O60285). A digest of the protocol: as §1
Chain of NUAK1 (O60285 whole entry): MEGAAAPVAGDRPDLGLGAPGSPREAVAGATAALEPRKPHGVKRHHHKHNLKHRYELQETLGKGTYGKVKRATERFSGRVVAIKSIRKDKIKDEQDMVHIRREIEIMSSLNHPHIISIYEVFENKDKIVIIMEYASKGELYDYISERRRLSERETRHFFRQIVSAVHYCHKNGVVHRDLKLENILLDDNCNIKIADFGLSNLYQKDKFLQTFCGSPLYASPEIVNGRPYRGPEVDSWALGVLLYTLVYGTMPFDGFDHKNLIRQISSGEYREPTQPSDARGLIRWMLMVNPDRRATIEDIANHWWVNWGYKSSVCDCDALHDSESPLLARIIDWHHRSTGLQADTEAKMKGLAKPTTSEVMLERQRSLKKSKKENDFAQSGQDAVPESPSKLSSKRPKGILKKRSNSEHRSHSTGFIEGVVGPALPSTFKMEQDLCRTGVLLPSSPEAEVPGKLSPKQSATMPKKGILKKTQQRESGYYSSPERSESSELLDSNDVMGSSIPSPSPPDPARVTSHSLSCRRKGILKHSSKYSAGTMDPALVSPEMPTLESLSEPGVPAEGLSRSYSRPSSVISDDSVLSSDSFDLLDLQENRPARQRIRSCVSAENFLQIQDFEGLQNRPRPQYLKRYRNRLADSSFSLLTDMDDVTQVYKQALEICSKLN
For another experiment, the target named is CAMK2D (Homo sapiens, UniProt Q13557). A digest of the protocol: as §1
In the next experiment the target is TBK1 (Homo sapiens, UniProt Q9UHD2). A digest of the protocol:
as §1

The next experiment deals with MARK2 (Homo sapiens, UniProt Q7KZI7). The method in brief: as §1
Chain of MARK2 (Q7KZI7 whole entry): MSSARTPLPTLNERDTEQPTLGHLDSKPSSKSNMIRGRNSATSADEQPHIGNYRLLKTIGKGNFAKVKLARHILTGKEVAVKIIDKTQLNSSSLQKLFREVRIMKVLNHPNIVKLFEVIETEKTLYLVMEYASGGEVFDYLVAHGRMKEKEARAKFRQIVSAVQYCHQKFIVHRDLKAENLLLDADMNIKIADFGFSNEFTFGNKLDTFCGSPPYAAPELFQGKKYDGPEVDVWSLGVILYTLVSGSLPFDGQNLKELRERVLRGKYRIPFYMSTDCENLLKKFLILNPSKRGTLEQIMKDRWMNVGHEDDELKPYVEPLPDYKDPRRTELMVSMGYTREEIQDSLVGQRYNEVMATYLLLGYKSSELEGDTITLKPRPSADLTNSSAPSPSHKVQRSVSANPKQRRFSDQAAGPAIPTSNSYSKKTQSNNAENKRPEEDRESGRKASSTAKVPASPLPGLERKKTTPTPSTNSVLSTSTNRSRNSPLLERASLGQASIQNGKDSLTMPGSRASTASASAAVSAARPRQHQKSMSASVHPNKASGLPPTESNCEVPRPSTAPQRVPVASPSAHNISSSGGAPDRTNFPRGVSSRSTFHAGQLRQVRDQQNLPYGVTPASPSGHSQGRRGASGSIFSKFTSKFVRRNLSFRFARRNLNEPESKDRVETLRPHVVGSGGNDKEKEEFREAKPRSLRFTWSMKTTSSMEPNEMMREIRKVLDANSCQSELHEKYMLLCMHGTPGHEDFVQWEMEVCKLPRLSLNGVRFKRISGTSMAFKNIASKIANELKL
Another experiment deals with T1, ICK (Homo sapiens, UniProt Q9UPZ9).
T1 construct: gene CILK1
A digest of the protocol: as §1

The target of another experiment is STK10 (Homo sapiens, UniProt O94804). A digest of the protocol:
as §1

Chain of CLK4 (Q9HAZ1 whole entry): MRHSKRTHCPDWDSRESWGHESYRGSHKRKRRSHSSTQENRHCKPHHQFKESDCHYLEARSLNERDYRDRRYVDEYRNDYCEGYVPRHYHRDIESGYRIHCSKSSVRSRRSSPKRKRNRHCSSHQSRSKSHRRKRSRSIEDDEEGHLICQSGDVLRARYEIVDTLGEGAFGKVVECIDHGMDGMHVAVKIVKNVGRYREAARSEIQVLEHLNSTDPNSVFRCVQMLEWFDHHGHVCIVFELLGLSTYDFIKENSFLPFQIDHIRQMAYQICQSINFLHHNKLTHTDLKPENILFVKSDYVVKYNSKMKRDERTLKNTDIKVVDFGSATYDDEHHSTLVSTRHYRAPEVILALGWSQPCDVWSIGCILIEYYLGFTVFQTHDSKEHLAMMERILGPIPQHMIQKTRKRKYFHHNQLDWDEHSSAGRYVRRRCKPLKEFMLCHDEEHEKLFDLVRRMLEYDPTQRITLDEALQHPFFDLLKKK
Chain of WEE1 (P30291 whole entry, the tested form may be a part): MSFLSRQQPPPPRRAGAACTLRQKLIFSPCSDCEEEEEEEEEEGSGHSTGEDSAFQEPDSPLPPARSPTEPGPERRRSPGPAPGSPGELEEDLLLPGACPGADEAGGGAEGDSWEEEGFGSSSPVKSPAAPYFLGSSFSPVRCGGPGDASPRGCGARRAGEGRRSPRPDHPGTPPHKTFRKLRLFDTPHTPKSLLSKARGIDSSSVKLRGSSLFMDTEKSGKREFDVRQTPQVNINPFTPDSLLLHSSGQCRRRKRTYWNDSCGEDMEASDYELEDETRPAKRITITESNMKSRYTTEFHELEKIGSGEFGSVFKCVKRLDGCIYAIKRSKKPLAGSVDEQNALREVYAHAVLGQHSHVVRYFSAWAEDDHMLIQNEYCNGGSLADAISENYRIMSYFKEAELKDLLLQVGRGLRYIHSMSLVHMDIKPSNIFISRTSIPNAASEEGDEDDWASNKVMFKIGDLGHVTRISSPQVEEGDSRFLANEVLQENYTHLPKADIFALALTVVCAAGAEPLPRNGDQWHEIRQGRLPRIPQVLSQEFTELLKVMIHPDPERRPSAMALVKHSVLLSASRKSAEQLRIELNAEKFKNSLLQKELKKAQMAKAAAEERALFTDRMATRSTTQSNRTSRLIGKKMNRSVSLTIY
Chain of STK3 (Q13188 whole entry): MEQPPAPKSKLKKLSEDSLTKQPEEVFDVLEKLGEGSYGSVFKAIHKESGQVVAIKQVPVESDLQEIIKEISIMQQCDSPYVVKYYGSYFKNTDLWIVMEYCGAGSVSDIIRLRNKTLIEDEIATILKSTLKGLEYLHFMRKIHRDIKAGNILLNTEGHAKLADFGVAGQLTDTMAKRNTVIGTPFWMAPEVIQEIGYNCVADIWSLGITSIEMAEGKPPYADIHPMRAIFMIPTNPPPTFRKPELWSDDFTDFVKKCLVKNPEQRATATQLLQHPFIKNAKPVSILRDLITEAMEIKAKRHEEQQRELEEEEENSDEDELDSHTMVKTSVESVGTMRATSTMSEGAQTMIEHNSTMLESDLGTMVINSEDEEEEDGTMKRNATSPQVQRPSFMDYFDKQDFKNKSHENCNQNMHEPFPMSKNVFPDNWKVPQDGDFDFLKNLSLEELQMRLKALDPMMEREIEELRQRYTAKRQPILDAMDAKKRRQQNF
Chain of ITK (Q08881 whole entry): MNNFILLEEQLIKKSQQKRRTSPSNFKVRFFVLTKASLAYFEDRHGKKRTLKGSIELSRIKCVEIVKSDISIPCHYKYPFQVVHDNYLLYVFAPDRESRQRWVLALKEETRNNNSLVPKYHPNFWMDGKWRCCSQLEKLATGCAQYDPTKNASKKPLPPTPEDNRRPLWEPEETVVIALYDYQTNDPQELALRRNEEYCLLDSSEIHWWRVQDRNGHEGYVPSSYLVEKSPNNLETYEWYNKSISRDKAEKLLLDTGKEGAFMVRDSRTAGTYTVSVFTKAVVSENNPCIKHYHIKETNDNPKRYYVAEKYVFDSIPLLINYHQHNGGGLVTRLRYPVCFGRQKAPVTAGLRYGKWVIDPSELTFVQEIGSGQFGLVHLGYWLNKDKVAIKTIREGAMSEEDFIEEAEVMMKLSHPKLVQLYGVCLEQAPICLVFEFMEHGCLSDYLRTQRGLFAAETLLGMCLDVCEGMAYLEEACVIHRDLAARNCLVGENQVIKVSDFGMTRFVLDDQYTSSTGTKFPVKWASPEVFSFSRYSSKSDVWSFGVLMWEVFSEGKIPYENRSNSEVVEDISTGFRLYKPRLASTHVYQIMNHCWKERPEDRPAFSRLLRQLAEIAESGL
Chain of STK32B (Q9NY57 whole entry): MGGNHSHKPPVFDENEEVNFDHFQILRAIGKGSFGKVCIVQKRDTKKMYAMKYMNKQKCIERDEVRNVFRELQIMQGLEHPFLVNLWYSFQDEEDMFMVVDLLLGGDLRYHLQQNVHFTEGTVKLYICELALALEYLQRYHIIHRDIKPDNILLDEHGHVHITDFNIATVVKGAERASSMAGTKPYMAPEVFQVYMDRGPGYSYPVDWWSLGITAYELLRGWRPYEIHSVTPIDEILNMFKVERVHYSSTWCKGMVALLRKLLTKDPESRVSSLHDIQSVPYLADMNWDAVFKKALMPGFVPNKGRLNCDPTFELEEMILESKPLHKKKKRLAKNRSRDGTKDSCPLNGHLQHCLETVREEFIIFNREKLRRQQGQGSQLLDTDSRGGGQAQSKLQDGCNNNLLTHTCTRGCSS

As usually defined, the inhibition is the drop in the measured response relative to a control, in per cent. As for `C[C@@H](Oc1cc(-c2cnn(C3CCNCC3)c2)cnc1N)c1c(Cl)ccc(F)c1Cl` [crizotinib], the inhibition at 1 µM on WEE1 is -9%; on SIK1 it was -4%; at STK32B it was -1%; at SNRK it was -4%; on CLK4 it was -19%; on STK3, 1%. In addition, the inhibition at 1 µM at LIMK1 is 29%; at CSNK2A2 it was -14%; on PLK3, 4%; on CSNK1D, -4%; at ITK, -1%; on RIOK2, 9%. For the same compound, the inhibition at 1 µM on NUAK1 was 36%; on CAMK2D, 3%; on TBK1, -7%; at MARK2 it was 4%; on ICK it was 3%; on STK10 it was 35%.

The values are drawn from paper PMC8449129, “Single tracer-based protocol for broad-spectrum kinase profiling in live cells with NanoBRET” (STAR Protocols, 2021).
